Reference: US7053194B2, “Compositions and methods for p53-mediated repression of gene expression” (Fox Chase Cancer Center, priority 1999, dated 2006)

Tested on: human breast carcinoma cells (MCF7)
Assay: Northern analysis of survivin mRNA after doxorubicin
Type: cell-based
Settings: MCF7, 0.5 ug/mL doxorubicin, as early as twelve hours
Procedure: MCF-7 cells were maintained in RPMI-1640 supplemented with 10% fetal bovine serum and 100 units/ml of penicillin and streptomycin. The human melanoma cell line CaCl, and the derivative clone expressing the HPV E6 gene, were cultured as described (Ahn et al., Oncogene). The human osteosarcoma cell lines Saos-2 and U2-OS (kindly provided by Peter Adams, Fox Chase Cancer Center), the murine p21 knock-out fibroblasts (kindly provided by James Sherley, MIT) and the human lung adenocarcinoma cell line H1299 were cultured in DMEM supplemented with 10% fetal bovine serum and 100 units/ml of penicillin and streptomycin. Murine Va15 cells, containing the temperature-sensitive Valine 135 allele of p53, were maintained as described (Wu, et al., Genes & Devel. 7:1126–1132, 1993). All cells were grown at 37° C. […] For treatment with ultra-violet light, cells were irradiated with 0–10 J/m2 (as noted) of UV-C with a Spectroline X series ultraviolet lamp, and output was monitored with a traceable UV light meter (Fisher Scientific). […]
The full-length coding region for survivin was generated by reverse transcription-polymerase chain reaction (RT-PCR) using 5 ug of total RNA from the H1299 human lung adenocarcinoma cell line, using the Access RT-PCR kit (Promega) and the following oligonucleotides: forward 5′ […] […] Autoradiographs were quantitated using NIH image software. […]

COc1cccc2c1C(=O)c1c(O)c3c(c(O)c1C2=O)C[C@@](O)(C(=O)CO)C[C@@H]3O[C@H]1C[C@H](N)[C@H](O)[C@H](C)O1 [adriamycin, doxorubicin] was tested, and the “mRNA levels for survivin” value was “marked decreases in mRNA levels for survivin”.
